Activity calls are given as the source filed them. The calls are words filed in the database; no cut-off is given here.
How the values were obtained:
Type in all cases: functional
Candida albicans = test: Antimicrobial activity against Candida albicans 54 at 200 ug/spot after 18 hrs by agar diffusion method
Enterococcus faecium = test: Antibacterial activity against vancomycin-resistant Enterococcus faecium 379 at 200 ug/spot after 18 hrs by […]
Staphylococcus aureus [1] = test: Antibacterial activity against methicillin-sensitive Staphylococcus aureus 375 at 200 ug/spot after 18 hrs by agar diffusion method
Escherichia coli = test: Antibacterial activity against permeability mutant Escherichia coli 389 at 200 ug/spot after 18 hrs by agar diffusion method
Staphylococcus aureus [2] = test: Antibacterial activity against methicillin-resistant Staphylococcus aureus 310 at 200 ug/spot after 18 hrs by agar diffusion method

Row | Structure (SMILES) | inhibition zone (IZ) (Candida albicans) [mm] | inhibition zone (IZ) (Enterococcus faecium) [mm] | inhibition zone (IZ) (Staphylococcus aureus [1]) [mm] | inhibition zone (IZ) (Escherichia coli) [mm] | inhibition zone (IZ) (Staphylococcus aureus [2]) [mm] | Activity (Candida albicans) | Activity (Staphylococcus aureus [1]) | Activity (Escherichia coli) | Activity (Staphylococcus aureus [2]) | Activity (Enterococcus faecium)
1 | C[C@@](Cl)(/C=C/Br)[C@H]1CO[C@@](C)(O)[C@@H](Br)C1 | 8 |  |  |  |  |  |  |  |  | 
2 | CCC[C@@H](OC(C)=O)C1=C(Br)/C(=C\Br)OC1=O [ACETOXYFIMBROLIDE] | 17 | 16 | 24 | 9 | 25 |  |  |  |  | 
3 | CC(C)(Br)[C@@H](Cl)C[C@H](Br)[C@](C)(Cl)/C=C/Br [ANVERENE] |  | 8 |  |  |  | inactive | inactive | inactive | inactive | 
4 | CCCCC1=C(Br)/C(=C\Br)OC1=O [FIMBROLIDE] |  |  | 7 |  | 7 | inactive |  | inactive |  | inactive
5 | CCC[C@@H](O)C1=C(Br)/C(=C\Br)OC1=O [HYDROXYFIMBROLIDE] | 25 | 14 | 23 | 9 | 23 |  |  |  |  | 
6 | CC1=CC(=O)C=C(C/C=C(\C)CC/C=C(\C)CC/C=C(\C)CC/C=C(\C)C(=O)O)C1=O [MENZOQUINONE] |  | 7 | 6 |  | 8 |  |  |  |  | 
